Measurements: patent publication US12427157B2, “Methods for treatment of diseases involving acidic or hypoxic diseased tissues” (Cybrexa 1, Inc., priority 2018, dated 2025)
Residues, ends and D or L forms follow the SMILES beside them. *: point of attachment. X11 = CN(Cc1ccc(-c2[nH]c3cc(F)cc4c3c2CCNC4=O)cc1)C(=O)OCc1ccc(NC(=O)OCCS*)cc1; X13 = Cc1cc(COC(=O)N(C)Cc2ccc(-c3[nH]c4cc(F)cc5c4c3CCNC5=O)cc2)cc(C)c1S*; X17 = C[C@@H](COC(=O)N1CCC[C@@H](c2ccc(-n3cc4cccc(C(N)=O)c4n3)cc2)C1)S*; X21 = NC(=O)c1cccc2cn(-c3ccc([C@@H]4CCCN(C(=O)OCCS*)C4)cc3)nc12
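Also: PARP reaction with activated DNA run 1 h at room temperature, product detected via streptavidin-HRP and luminescence endpoint reading on a plate reader.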

These molecules were tested against PARP (Homo sapiens, UniProt P09874) (assay: Enzymatic Assay 2: HT Universal Chemiluminescent PARP Assay of cleaved compounds). Details: read-out: IC50 Enzymatic Assay 2; Examples cleaved per Example A (crude cleavage solution); R^8H starting materials as such.
Chain of PARP (P09874 whole entry): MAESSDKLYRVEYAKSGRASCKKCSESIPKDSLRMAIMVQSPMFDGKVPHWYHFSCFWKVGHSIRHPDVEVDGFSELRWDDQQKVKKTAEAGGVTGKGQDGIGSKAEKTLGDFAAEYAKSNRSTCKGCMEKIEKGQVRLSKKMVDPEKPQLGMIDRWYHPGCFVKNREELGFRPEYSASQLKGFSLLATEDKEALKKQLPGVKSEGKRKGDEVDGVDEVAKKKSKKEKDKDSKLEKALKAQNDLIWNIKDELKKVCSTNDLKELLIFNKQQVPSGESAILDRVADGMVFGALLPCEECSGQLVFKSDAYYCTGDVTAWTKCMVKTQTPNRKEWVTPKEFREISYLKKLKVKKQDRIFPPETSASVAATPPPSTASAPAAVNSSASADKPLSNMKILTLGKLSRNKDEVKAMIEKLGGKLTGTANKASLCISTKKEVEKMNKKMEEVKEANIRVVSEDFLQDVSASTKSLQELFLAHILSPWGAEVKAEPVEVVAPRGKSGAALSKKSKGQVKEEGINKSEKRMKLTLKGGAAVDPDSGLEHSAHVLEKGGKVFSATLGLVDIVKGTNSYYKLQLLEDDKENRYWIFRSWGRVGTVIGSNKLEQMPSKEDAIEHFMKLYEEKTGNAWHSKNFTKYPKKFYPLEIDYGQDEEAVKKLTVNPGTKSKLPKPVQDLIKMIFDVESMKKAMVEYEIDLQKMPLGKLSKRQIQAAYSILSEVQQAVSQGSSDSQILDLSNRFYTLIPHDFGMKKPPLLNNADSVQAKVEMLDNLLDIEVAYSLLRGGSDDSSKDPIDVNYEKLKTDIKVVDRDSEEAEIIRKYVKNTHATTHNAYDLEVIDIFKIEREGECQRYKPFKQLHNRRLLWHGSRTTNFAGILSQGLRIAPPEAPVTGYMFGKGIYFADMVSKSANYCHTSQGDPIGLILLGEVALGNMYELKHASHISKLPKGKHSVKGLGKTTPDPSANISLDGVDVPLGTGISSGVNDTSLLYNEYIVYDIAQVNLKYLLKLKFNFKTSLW
With `CC[C@H](C)[C@H](NC(=O)[C@@H]1CCCN1C(=O)[C@H](CC(N)=O)NC(=O)[C@H](CCC(N)=O)NC(=O)[C@H](CCC(=O)O)NC(=O)[C@H](C)N)C(=O)N[C@@H](Cc1ccc(O)cc1)C(=O)N[C@@H](Cc1c[nH]c2ccccc12)C(=O)N[C@@H](C)C(=O)N[C@@H](CCCNC(=N)N)C(=O)N[C@@H](Cc1ccc(O)cc1)C(=O)N[C@@H](C)C(=O)N[C@@H](CC(=O)O)C(=O)N[C@@H](Cc1c[nH]c2ccccc12)C(=O)N[C@@H](CC(C)C)C(=O)N[C@@H](Cc1ccccc1)C(=O)N[C@H](C(=O)N[C@H](C(=O)N1CCC[C@H]1C(=O)N[C@@H](CC(C)C)C(=O)N[C@@H](CC(C)C)C(=O)N[C@@H](CC(C)C)C(=O)N[C@@H](CC(C)C)C(=O)N[C@@H](CC(=O)O)C(=O)N[C@@H](CC(C)C)C(=O)N[C@@H](C)C(=O)N[C@@H](CC(C)C)C(=O)N[C@@H](CC(C)C)C(=O)N[C@H](C(=O)N[C@@H](CC(=O)O)C(=O)N[C@@H](C)C(=O)N[C@@H](CC(=O)O)C(=O)N[C@@H](CCC(=O)O)C(=O)N[C@@H](CSSc1c(C)cc(COC(=O)N(C)Cc2ccc(-c3[nH]c4cc(F)cc5c4c3CCNC5=O)cc2)cc1C)C(=O)NCC(=O)O)C(C)C)[C@@H](C)O)[C@@H](C)O` [Example 31] (H-AEQNPIYWARYADWLFTTPLLLLDLALLVDADEC(X13)G-OH; N-terminus and C-terminus assumed) the IC50 was 3.3 nM.
`CC[C@H](C)[C@H](NC(=O)[C@@H]1CCCN1C(=O)[C@H](CC(N)=O)NC(=O)[C@H](CCC(N)=O)NC(=O)[C@H](CCC(=O)O)NC(=O)[C@H](C)N)C(=O)N[C@@H](Cc1ccc(O)cc1)C(=O)N[C@@H](Cc1c[nH]c2ccccc12)C(=O)N[C@@H](C)C(=O)N[C@@H](CCCNC(=N)N)C(=O)N[C@@H](Cc1ccc(O)cc1)C(=O)N[C@@H](C)C(=O)N[C@@H](CC(=O)O)C(=O)N[C@@H](Cc1c[nH]c2ccccc12)C(=O)N[C@@H](CC(C)C)C(=O)N[C@@H](Cc1ccccc1)C(=O)N[C@H](C(=O)N[C@H](C(=O)N1CCC[C@H]1C(=O)N[C@@H](CC(C)C)C(=O)N[C@@H](CC(C)C)C(=O)N[C@@H](CC(C)C)C(=O)N[C@@H](CC(C)C)C(=O)N[C@@H](CC(=O)O)C(=O)N[C@@H](CC(C)C)C(=O)N[C@@H](C)C(=O)N[C@@H](CC(C)C)C(=O)N[C@@H](CC(C)C)C(=O)N[C@H](C(=O)N[C@@H](CC(=O)O)C(=O)N[C@@H](C)C(=O)N[C@@H](CC(=O)O)C(=O)N[C@@H](CCC(=O)O)C(=O)N[C@@H](CSS[C@@H](C)COC(=O)N1CCC[C@@H](c2ccc(-n3cc4cccc(C(N)=O)c4n3)cc2)C1)C(=O)NCC(=O)O)C(C)C)[C@@H](C)O)[C@@H](C)O` [Example 48] (H-AEQNPIYWARYADWLFTTPLLLLDLALLVDADEC(X17)G-OH; N-terminus and C-terminus assumed) was tested, and the IC50 was 2.1 nM.
In the case of `CC[C@H](C)[C@H](NC(=O)[C@@H]1CCCN1C(=O)[C@H](CC(N)=O)NC(=O)[C@H](CCC(N)=O)NC(=O)[C@H](CCC(=O)O)NC(=O)[C@H](C)N)C(=O)N[C@@H](Cc1ccc(O)cc1)C(=O)N[C@@H](Cc1c[nH]c2ccccc12)C(=O)N[C@@H](C)C(=O)N[C@@H](CCCNC(=N)N)C(=O)N[C@@H](Cc1ccc(O)cc1)C(=O)N[C@@H](C)C(=O)N[C@@H](CC(=O)O)C(=O)N[C@@H](Cc1c[nH]c2ccccc12)C(=O)N[C@@H](CC(C)C)C(=O)N[C@@H](Cc1ccccc1)C(=O)N[C@H](C(=O)N[C@H](C(=O)N1CCC[C@H]1C(=O)N[C@@H](CC(C)C)C(=O)N[C@@H](CC(C)C)C(=O)N[C@@H](CC(C)C)C(=O)N[C@@H](CC(C)C)C(=O)N[C@@H](CC(=O)O)C(=O)N[C@@H](CC(C)C)C(=O)N[C@@H](C)C(=O)N[C@@H](CC(C)C)C(=O)N[C@@H](CC(C)C)C(=O)N[C@H](C(=O)N[C@@H](CC(=O)O)C(=O)N[C@@H](C)C(=O)N[C@@H](CC(=O)O)C(=O)N[C@@H](CCC(=O)O)C(=O)N[C@@H](CSSCCOC(=O)N1CCC[C@@H](c2ccc(-n3cc4cccc(C(N)=O)c4n3)cc2)C1)C(=O)NCC(=O)O)C(C)C)[C@@H](C)O)[C@@H](C)O` [Example 49] (H-AEQNPIYWARYADWLFTTPLLLLDLALLVDADEC(X21)G-OH; N-terminus and C-terminus assumed), the IC50 is reported as 26 nM.
Work on `CC(C)C[C@H](NC(=O)[C@H](Cc1ccc(O)cc1)NC(=O)[C@H](C)NC(=O)[C@H](CCCNC(=N)N)NC(=O)[C@H](Cc1c[nH]c2ccccc12)NC(=O)[C@@H]1CCCN1C(=O)[C@H](CC(N)=O)NC(=O)[C@H](CCC(N)=O)NC(=O)[C@H](CC(=O)O)NC(=O)[C@H](CC(=O)O)NC(=O)[C@H](C)N)C(=O)N[C@@H](CC(=O)O)C(=O)N[C@@H](CC(C)C)C(=O)N[C@@H](CC(C)C)C(=O)N[C@@H](Cc1ccccc1)C(=O)N1CCC[C@H]1C(=O)N[C@H](C(=O)N[C@@H](CC(=O)O)C(=O)N[C@H](C(=O)N[C@@H](CC(C)C)C(=O)N[C@@H](CC(C)C)C(=O)N[C@@H](CC(C)C)C(=O)N[C@@H](CC(=O)O)C(=O)N[C@@H](CC(C)C)C(=O)N[C@@H](CC(C)C)C(=O)N[C@@H](Cc1c[nH]c2ccccc12)C(=O)N[C@@H](CSS[C@H](C)COC(=O)N(C)Cc1ccc(-c2[nH]c3cc(F)cc4c3c2CCNC4=O)cc1)C(=O)NCC(=O)O)[C@@H](C)O)[C@@H](C)O` [Example 18] yielded an IC50 of 1.1 nM.
For `CC(C)C[C@H](NC(=O)[C@H](Cc1ccc(O)cc1)NC(=O)[C@H](C)NC(=O)[C@H](CCCNC(=N)N)NC(=O)[C@H](Cc1c[nH]c2ccccc12)NC(=O)[C@@H]1CCCN1C(=O)[C@H](CC(N)=O)NC(=O)[C@H](CCC(N)=O)NC(=O)[C@H](CC(=O)O)NC(=O)[C@H](CC(=O)O)NC(=O)[C@H](C)N)C(=O)N[C@@H](CC(=O)O)C(=O)N[C@@H](CC(C)C)C(=O)N[C@@H](CC(C)C)C(=O)N[C@@H](Cc1ccccc1)C(=O)N1CCC[C@H]1C(=O)N[C@H](C(=O)N[C@@H](CC(=O)O)C(=O)N[C@H](C(=O)N[C@@H](CC(C)C)C(=O)N[C@@H](CC(C)C)C(=O)N[C@@H](CC(C)C)C(=O)N[C@@H](CC(=O)O)C(=O)N[C@@H](CC(C)C)C(=O)N[C@@H](CC(C)C)C(=O)N[C@@H](Cc1c[nH]c2ccccc12)C(=O)N[C@@H](CC(=O)O)C(=O)N[C@@H](C)C(=O)N[C@@H](CC(=O)O)C(=O)N[C@@H](CCC(=O)O)C(=O)N[C@@H](CSSCCOC(=O)N1CCC[C@]1(C)c1nc2c(C(N)=O)cccc2[nH]1)C(=O)NCC(=O)O)[C@@H](C)O)[C@@H](C)O` [Example 11], the IC50 was 1.08 nM.
`CC[C@H](C)[C@H](NC(=O)[C@@H]1CCCN1C(=O)[C@H](CC(N)=O)NC(=O)[C@H](CCC(N)=O)NC(=O)[C@H](CCC(=O)O)NC(=O)[C@H](C)N)C(=O)N[C@@H](Cc1ccc(O)cc1)C(=O)N[C@@H](Cc1c[nH]c2ccccc12)C(=O)N[C@@H](C)C(=O)N[C@@H](CCCNC(=N)N)C(=O)N[C@@H](Cc1ccc(O)cc1)C(=O)N[C@@H](C)C(=O)N[C@@H](CC(=O)O)C(=O)N[C@@H](Cc1c[nH]c2ccccc12)C(=O)N[C@@H](CC(C)C)C(=O)N[C@@H](Cc1ccccc1)C(=O)N[C@H](C(=O)N[C@H](C(=O)N1CCC[C@H]1C(=O)N[C@@H](CC(C)C)C(=O)N[C@@H](CC(C)C)C(=O)N[C@@H](CC(C)C)C(=O)N[C@@H](CC(C)C)C(=O)N[C@@H](CC(=O)O)C(=O)N[C@@H](CC(C)C)C(=O)N[C@@H](C)C(=O)N[C@@H](CC(C)C)C(=O)N[C@@H](CC(C)C)C(=O)N[C@H](C(=O)N[C@@H](CC(=O)O)C(=O)N[C@@H](C)C(=O)N[C@@H](CC(=O)O)C(=O)N[C@@H](CCC(=O)O)C(=O)N[C@@H](CSSCCOC(=O)Nc1ccc(COC(=O)N(C)Cc2ccc(-c3[nH]c4cc(F)cc5c4c3CCNC5=O)cc2)cc1)C(=O)NCC(=O)O)C(C)C)[C@@H](C)O)[C@@H](C)O` [Example 32] (H-AEQNPIYWARYADWLFTTPLLLLDLALLVDADEC(X11)G-OH; N-terminus and C-terminus assumed) showed an IC50 of 43.9 nM.
Work on `CC(C)C[C@H](NC(=O)[C@H](Cc1ccc(O)cc1)NC(=O)[C@H](C)NC(=O)[C@H](CCCNC(=N)N)NC(=O)[C@H](Cc1c[nH]c2ccccc12)NC(=O)[C@@H]1CCCN1C(=O)[C@H](CC(N)=O)NC(=O)[C@H](CCC(N)=O)NC(=O)[C@H](CC(=O)O)NC(=O)[C@H](CC(=O)O)NC(=O)[C@H](C)N)C(=O)N[C@@H](CC(=O)O)C(=O)N[C@@H](CC(C)C)C(=O)N[C@@H](CC(C)C)C(=O)N[C@@H](Cc1ccccc1)C(=O)N1CCC[C@H]1C(=O)N[C@H](C(=O)N[C@@H](CC(=O)O)C(=O)N[C@H](C(=O)N[C@@H](CC(C)C)C(=O)N[C@@H](CC(C)C)C(=O)N[C@@H](CC(C)C)C(=O)N[C@@H](CC(=O)O)C(=O)N[C@@H](CC(C)C)C(=O)N[C@@H](CC(C)C)C(=O)N[C@@H](Cc1c[nH]c2ccccc12)C(=O)N[C@@H](CSSc1ccc(COC(=O)N(C)Cc2ccc(-c3[nH]c4cc(F)cc5c4c3CCNC5=O)cc2)cc1)C(=O)NCC(=O)O)[C@@H](C)O)[C@@H](C)O` [Example 36] yielded an IC50 of 2.2 nM.
`CC(C)C[C@H](NC(=O)[C@H](Cc1ccc(O)cc1)NC(=O)[C@H](C)NC(=O)[C@H](CCCNC(=N)N)NC(=O)[C@H](Cc1c[nH]c2ccccc12)NC(=O)[C@@H]1CCCN1C(=O)[C@H](CC(N)=O)NC(=O)[C@H](CCC(N)=O)NC(=O)[C@H](CC(=O)O)NC(=O)[C@H](CC(=O)O)NC(=O)[C@H](C)N)C(=O)N[C@@H](CC(=O)O)C(=O)N[C@@H](CC(C)C)C(=O)N[C@@H](CC(C)C)C(=O)N[C@@H](Cc1ccccc1)C(=O)N1CCC[C@H]1C(=O)N[C@H](C(=O)N[C@@H](CC(=O)O)C(=O)N[C@H](C(=O)N[C@@H](CC(C)C)C(=O)N[C@@H](CC(C)C)C(=O)N[C@@H](CC(C)C)C(=O)N[C@@H](CC(=O)O)C(=O)N[C@@H](CC(C)C)C(=O)N[C@@H](CC(C)C)C(=O)N[C@@H](Cc1c[nH]c2ccccc12)C(=O)N[C@@H](CC(=O)O)C(=O)N[C@@H](C)C(=O)N[C@@H](CC(=O)O)C(=O)N[C@@H](CCC(=O)O)C(=O)N[C@@H](CSSc1ccc(COC(=O)N2CCC[C@]2(C)c2nc3c(C(N)=O)cccc3[nH]2)cc1)C(=O)NCC(=O)O)[C@@H](C)O)[C@@H](C)O` [Example 56] gave an IC50 of 0.8 nM.
